# Source: patent publication US20040010001A1, “Methods and compositions for modulating cell proliferation and cell death” (priority 1999, published 2004)
# Where a name gives a salt, the structure may show the parent alone. Read-outs that look alike come from different tables or passages of the source.
# Test system: Human prostate PC3 tumor cells
# Experiment: aFGF/bFGF-induced resistance and reversal by suramin, sulforhodamine B assay
# Assay type: cell-based
# Protocol: The experimental conditions are described briefly below. […] Cell number was measured using the sulforhodamine B assay which measures the total protein concentration. […] The FGF-induced resistance was dependent on the FGF concentrations, with a higher resistance at higher FGF concentrations.
# [1] = Homo sapiens, read-out: IC50, Control (drug treatment only, without FGF treatment), No suramin, drug 96 hours
# [2] = Homo sapiens, read-out: IC50, aFGF 0.3 ng/ml + bFGF 1 ng/ml, No suramin, FGF pretreatment 96 hours, drug 96 hours
# [3] = Homo sapiens, read-out: IC50, aFGF 1 ng/ml + bFGF 3 ng/ml, No suramin, FGF pretreatment 96 hours, drug 96 hours
# [4] = no suramin, relative to control
# [5] = read-out: IC50, Control (without FGF treatment), Suramin, 15 μM, drug 96 hours with 15 μM suramin
# [6] = read-out: IC50, aFGF 0.3 ng/ml + bFGF 1 ng/ml, With suramin, FGF pretreatment 96 hours, drug 96 hours with 15 micromolar suramin
# [7] = read-out: IC50, aFGF 1 ng/ml + bFGF 3 ng/ml, With suramin, FGF pretreatment 96 hours, drug 96 hours with 15 micromolar suramin
# [8] = Homo sapiens, 96 h, read-out: IC50, Control (drug treatment only, without FGF treatment), No suramin
# [9] = Homo sapiens, 96 h, read-out: IC50, aFGF 0.3 ng/ml + bFGF 1 ng/ml, No suramin
# [10] = Homo sapiens, 96 h, read-out: IC50, aFGF 1 ng/ml + bFGF 3 ng/ml, No suramin
# [11] = read-out: IC50, Control (without FGF treatment), Suramin, 15 μM
# [12] = read-out: IC50, aFGF 0.3 ng/ml + bFGF 1 ng/ml, With suramin
# [13] = read-out: IC50, aFGF 1 ng/ml + bFGF 3 ng/ml, With suramin
SMILES,IC50 [1] [µM],IC50 [2] [µM],IC50 [3] [µM],"Resistance, Folds, aFGF 0.3 ng/ml + bFGF 1 ng/ml [4] [Folds]","Resistance, Folds, aFGF 1 ng/ml + bFGF 3 ng/ml [4] [Folds]",IC50 [5] [µM],IC50 [6] [µM],IC50 [7] [µM],"Resistance, Folds, aFGF 0.3 ng/ml + bFGF 1 ng/ml [Folds]","Resistance, Folds, aFGF 1 ng/ml + bFGF 3 ng/ml [Folds]",IC50 [8] [µM],IC50 [9] [µM],IC50 [10] [µM],IC50 [11] [µM],IC50 [12] [µM],IC50 [13] [µM]
C/C=C1\NC(=O)[C@H]2CSSCC/C=C/[C@H](CC(=O)N[C@H](C(C)C)C(=O)N2)OC(=O)[C@H](C(C)C)NC1=O [Depsipeptide],0.00112,0.00155,0.00216,1.38,1.93,0.00103,0.00116,0.00116,–,–,–,–,–,–,–,–
COc1cccc2c1C(=O)c1c(O)c3c(c(O)c1C2=O)C[C@@](O)(C(=O)CO)C[C@@H]3O[C@H]1C[C@H](N)[C@@H](O)[C@H](C)O1 [Epirubicin],0.102,0.167,0.282,1.63,2.75,0.12,0.122,0.137,–,–,–,–,–,–,–,–
COc1cc([C@@H]2c3cc4c(cc3[C@@H](O[C@@H]3O[C@@H]5CO[C@@H](C)O[C@H]5[C@H](O)[C@H]3O)[C@H]3COC(=O)[C@H]23)OCO4)cc(OC)c1O [Etoposide],1.84,2.34,3.4,1.27,1.85,1.75,1.6,1.61,–,–,–,–,–,–,–,–
Nc1ccn([C@@H]2O[C@H](CO)[C@@H](O)C2(F)F)c(=O)n1 [Gemcitabine],0.00684,0.00961,0.0131,1.41,1.91,0.00695,0.00612,0.00599,–,–,–,–,–,–,–,–
CC(=O)[C@]1(O)Cc2c(O)c3c(c(O)c2[C@@H](O[C@H]2C[C@H](N)[C@H](O)[C@H](C)O2)C1)C(=O)c1ccccc1C3=O [Idarubicin],0.00445,0.0119,0.0312,2.67,7.01,0.00505,–,0.0043,–,–,–,–,–,–,–,–
O=P1(NCCCl)OCCCN1CCCl (stereo not drawn) [Ifosfamide],2.66,5.01,8.12,1.88,3.05,2.23,2.22,2.55,–,–,–,–,–,–,–,–
N[C@@H](Cc1ccc(N(CCCl)CCCl)cc1)C(=O)O [Melphalan],4.19,12.8,24.6,3.07,5.87,4.02,4.48,3.97,–,–,–,–,–,–,–,–
O=C1NC(=S)NC(=O)C1C(=O)Nc1ccccc1 [Merbarone],23,46.7,80.8,1.67,2.89,28.6,24.9,29.4,–,–,–,–,–,–,–,–
CN(Cc1cnc2nc(N)nc(N)c2n1)c1ccc(C(=O)N[C@@H](CCC(=O)O)C(=O)O)cc1 [Methotrexate],32.1,60.6,80.5,1.89,2.51,28.8,30.6,33.7,–,–,–,–,–,–,–,–
CO[C@@]12[C@H](COC(N)=O)C3=C(C(=O)C(C)=C(N)C3=O)N1C[C@@H]1N[C@@H]12 [Mitomycin C],1.61,3.06,4.7,–,–,1.53,1.69,1.6,–,–,–,–,–,–,–,–
O=C1c2c(O)ccc(O)c2C(=O)c2c(NCCNCCO)ccc(NCCNCCO)c21 [Mitoxantrone],0.18,0.33,0.53,1.83,2.94,0.16,–,–,–,–,–,–,–,–,–,–
"O=C(O)CC(NC(=O)CP(=O)(O)O)C(=O)O [PALA, N-Phosphoracetyl-L-Asparate]",–,–,–,–,–,–,–,–,1.06,1.21,241,255,292,249,236,201
OC[C@H]1O[C@@H](n2cnc3c2NC=NC[C@H]3O)C[C@@H]1O [Pentostatin],–,–,–,–,–,–,–,–,–,–,336,–,–,–,–,–
O=C(CCBr)N1CCN(C(=O)CCBr)CC1 [Pipobroman],136,194,184,1.42,1.35,94,125,109,–,–,–,–,–,–,–,–
NCCCNc1ccc2c3c(nn2CCNCCO)-c2c(O)ccc(O)c2C(=O)c13 [Piroxantrone Hydrochloride],0.34,0.81,1.28,2.38,3.77,0.32,0.33,0.28,–,–,–,–,–,–,–,–
NC(=O)c1[nH]nc([C@@H]2O[C@H](CO)[C@@H](O)[C@H]2O)c1O [Pyrazofurin],3.38,4.07,11.1,1.20,3.27,3.83,3.65,3.8,–,–,–,–,–,–,–,–
O=C1NC2(CCCCC2)C(=O)N1CCN(CCCl)CCCl [Spiromustine],–,–,–,–,–,–,–,–,2.15,3.46,25.3,54.5,87.6,24.4,25.4,26.7
CC(=O)O[C@@]12CO[C@@H]1C[C@H](O)[C@@]1(C)C(=O)[C@H](O)C3=C(C)[C@@H](OC(=O)[C@H](O)[C@@H](NC(=O)OC(C)(C)C)c4ccccc4)C[C@@](O)([C@@H](OC(=O)c4ccccc4)[C@H]21)C3(C)C [Taxotere],0.00229,–,–,–,–,0.00202,–,–,–,–,–,–,–,–,–,–
COc1cc([C@@H]2c3cc4c(cc3[C@@H](O[C@@H]3O[C@@H]5CO[C@@H](c6cccs6)O[C@H]5[C@H](O)[C@H]3O)[C@H]3COC(=O)[C@H]23)OCO4)cc(OC)c1O [Teniposide],0.4,1.14,1.98,2.85,4.95,0.42,0.39,0.36,–,–,–,–,–,–,–,–
S=P(N1CC1)(N1CC1)N1CC1 [Thiotepa],–,–,–,–,–,–,–,–,4.96,8.61,3.85,19.1,33.2,4.07,4.09,4.17
NC(=O)c1csc([C@@H]2O[C@H](CO)[C@@H](O)[C@H]2O)n1 [Tiazofurin],7.5,14.6,19.2,1.94,2.57,7.9,7.25,6.15,–,–,–,–,–,–,–,–
